The source of these data is patent US8129527B2, “Analogs of dehydrophenylahistins and their therapeutic use” (Nereus Pharmacuticals, Inc., priority 2006, dated 2012).

Series [1] has as its system Trichophyton rubrum. Nature of the series: Antifungal susceptibility testing, broth dilution (MIC/MFC). Format: cell-based. The settings on record: Trichophyton rubrum. As for the experimental part:
(§1) Specifically, disclosed compounds were evaluated alongside commercially available microtubulin inhibitors as well as recognized antifungal agents.
(§2) Microorganisms against which these compounds were tested included: Candida albicans, Candida glabrata, Aspergillus fumigatus, Trichophyton rubrum, Trichophyton mentagrophytes, Epidermophyton floccosum. With the exception of Candida glabrata (one isolate), two isolates of each species were tested.
(§3) The minimum lethal concentration (MLC) was determined by plating […] from the MIC concentration and each concentration above the MIC. […] When a MIC was obtained, a minimum fungicidal concentration (MFC) was determined to assess the fungistatic/fungicidal nature of the compound.
Background: Broth dilution looks for growth in wells or tubes with falling amounts of substance.

For series [2], the system named is Aspergillus fumigatus. The description is as above. Format: cell-based. The settings on record: Aspergillus fumigatus, A. fumigatus isolate #2; read-out: MIC. As for the experimental part:
as §1, §2, §3

Series [3] has as its system Trichophyton mentagrophytes. Described as above. The settings on record: Trichophyton mentagrophytes. It counts as cell-based. As for the experimental part:
(§4) Specifically, disclosed compounds were evaluated alongside commercially available microtubulin inhibitors as well as recognized antifungal agents. […].
as §2
(§5) Drug concentrations were 0.03-16 μg/ml for the investigational compounds, 0.015-8 μg/ml for itraconazole and griseofulvin.
(§6) The minimum lethal concentration (MLC) was determined by plating […] from the MIC concentration and each concentration above the MIC. […] When a MIC was obtained, a minimum fungicidal concentration (MFC) was determined to assess the fungistatic/fungicidal nature of the compound. […] The compound is scored as fungistatic if the cells are able to resume growth and fungicidal if no regrowth is possible because the compound had killed the organisms.

The subject of series [4] is Epidermophyton floccosum. Described as above. Format: cell-based. The procedure:
as §4, §2, §5, §6

The test system of series [5] is MES-SA/Dx5 (Taxol Resistant) human uterine sarcoma. As to the kind of experiment: Drug resistant cell line pair, cytotoxicity (Example 10B). Format: cell-based. An excerpt: (§7) 1) Human Uterine Sarcoma Tumor Cell Line Pair: MES-SA (Taxol Sensitive) and MES-SA/Dx5 (Taxol Resistant).
Series [6] deals with MES-SA (Taxol Sensitive) human uterine sarcoma. The series is described as above. It counts as cell-based. The settings on record: IC50 CsA Pretreat relative to No CsA.
Excerpt: as §7

The subject of series [7] is MCF-7 (Taxol Sensitive) human breast carcinoma. Described as above. Format: cell-based. From the text: (§8) 3). Human Breast Carcinoma Cell Line Pair: MCF-7 (Taxol Sensitive) and MCF-7/ADR (Taxol Resistant)
Series [8] relates to MCF-7/ADR (Taxol Resistant) human breast carcinoma. The description is as above. Format: cell-based.
Excerpt: as §8

The subject of series [9] is HuVEC. Nature of the series: Action on microtubule function, α-tubulin staining. The settings on record: 2 μM, thirty minutes exposure.
The test system of series [10] is HT-29 cells. As to the kind of experiment: Additional cytotoxicity assays, resazurin (Table 3.1). Format: cell-based, human. The settings on record: Table 3.1. As for the experimental part:
10× concentrated serial dilutions of the two compounds were prepared in appropriate culture medium for final concentrations ranging from 2.0×10^−5 M to 2.0×10^−10 M. Ten μl volumes of the 10× serial dilutions were added to the test wells in triplicate and the plates returned to the incubator for 48 hours.
Following 48 hours of drug exposure 10 μl of 0.2 mg/ml resazurin (obtained from Sigma-Aldrich Chemical Co.) in Mg^2+, Ca^2+ free PBS was added to each well and the plates were returned to the incubator for 3-4 hours. […] Resazurin dye without cells was used to determine the background, which was subtracted from the data for all experimental wells. The data were analyzed using Prism software (GraphPad Software).
Additional cytotoxicity assays were performed as described above under this example, using Resazurin fluorescence as an indicator of cell viability.
Background: Alamar Blue is a resazurin reagent that responds to reducing activity.

Values after ≈ are worked out from the molar mass of the structure shown. Values joined by “and” are separate entries in the source; they are usually repeats but may differ in a detail not shown here. Equal entries are not always repeated.

For the molecule `COC1=CC(=O)C[C@@H](C)[C@]12Oc1c(Cl)c(OC)cc(OC)c1C2=O` [griseofulvin, Griseofulvin, reference compound], the MIC was 0.5 µg/mL (≈ 1.42 µM) in [1] (T. rubrum isolate #1); below 0.015 µg/mL in series [1] (T. rubrum isolate #2); 0.5 µg/mL (≈ 1.42 µM) in [2]; 1 µg/mL (≈ 2.83 µM) in series [3] (T. mentagrophytes isolate #1); 2 µg/mL (≈ 5.67 µM) in [3] (T. mentagrophytes isolate #2); 2 µg/mL (≈ 5.67 µM) in series [4] (E. floccosum isolate #1). Further, the MIC in series [4] (E. floccosum isolate #2) turned out to be 4 µg/mL (≈ 11.3 µM).
As for `CC(=O)O[C@H]1C(=O)[C@@]2(C)[C@H]([C@H](OC(=O)c3ccccc3)[C@]3(O)C[C@H](OC(=O)[C@H](O)[C@@H](NC(=O)c4ccccc4)c4ccccc4)C(C)=C1C3(C)C)[C@]1(OC(C)=O)CO[C@@H]1C[C@@H]2O` [Taxol, reference compound], in series [5] (CsA pretreatment), the “effect of Cyclosporin A (CsA) treatment” value was “restored the sensitivity to taxol”. In addition, the “potency in the resistant MES-SA/DX5 line vs the sensitive line” value in series [5] (in words) is “virtually inactive”. Besides, the “Ratio No CsA” value in [6] was 0.6 and 0.4. Besides, the IC50 is 2.6 nM in series [7] (Homo sapiens, MCF7/Taxol, Table 15, read-out: MCF-7 Sensitive IC50) and above 100 nM in [8] (Homo sapiens, NCI/ADR-RES, read-out: MCF-7/ADR Resistant IC 50 nM, Table 15). Moreover, the “potency in the sensitive MCF-7 cell line” value in series [7] (in words) is reported as “low nanomolar potency”. Besides, the “MCF-7/ADR Resistant Ratio to Sensitive” value in series [8] (Table 15) was >>38. The “potency in resistant MCF-7/ADR vs sensitive MCF-7” value in series [8] (in words) was “virtually inactive in the resistant cell line”. Further, in [9], the “microtubule depolymerization in HuVEC cells” value is given as “did not induce microtubule depolymerization”.
With `CC(C)(C)c1[nH]cnc1/C=C1\NC(=O)[C@H](Cc2ccccc2)NC1=O` [Compound 2460, (−)-tBu-PLH], the MFC in series [1] (T. rubrum isolate #1) was 0.125 µg/mL (≈ 0.369 µM); in [1] (T. rubrum isolate #2), below 0.03 µg/mL; in [3] (T. mentagrophytes isolate #1), above 16 µg/mL. For the same molecule, the MIC in [1] (T. rubrum isolate #1) was below 0.03 µg/mL; in series [1] (T. rubrum isolate #2), below 0.03 µg/mL; in [3] (T. mentagrophytes isolate #1), 4 µg/mL (≈ 11.8 µM); in [3] (T. mentagrophytes isolate #2), above 16 µg/mL; in series [4] (E. floccosum isolate #1), above 16 µg/mL; in [4] (E. floccosum isolate #2), above 16 µg/mL. The EC50 in series [10] (Homo sapiens, HT-29, read-out: EC50 (M) Mean) amounted to 2.55e-07 M. The “% cytotox Mean” value in [10] turned out to be 87%.

As a reminder, the MIC is the lowest concentration found to suppress growth. Broadly, the MFC is the lowest tested concentration that kills the fungus rather than only halting it. Low values mean more potent killing, high ones less potent killing. Broadly, the EC50 is the concentration needed to bring the measured effect to its halfway point.
